ChEMBL document CHEMBL1158895, “Tartrolone C: a novel insecticidal macrodiolide produced by Streptomyces sp. CP1130” (2003)

Assays:
Spodoptera exigua = assay: Antilepidopteran activity against beet armyworm eggs assessed as minimum emergent larvicide concentration after 6 to 7 days; assay type: functional
Heliothis virescens = assay: Antilepidopteran activity against tobacco budworm eggs assessed as minimum emergent larvicide concentration after 6 to 7 days; assay type: functional

| SMILES | Activity (Spodoptera exigua) | Activity (Heliothis virescens) |
| --- | --- | --- |
| CC[C@H]1CCC[C@H](O[C@H]2CC[C@H](N(C)C)[C@@H](C)O2)[C@@H](C)C(=O)C2=C[C@@H]3[C@@H](C=C[C@@H]4C[C@@H](O[C@@H]5O[C@@H](C)[C@H](OC)[C@@H](OC)[C@H]5OC)C[C@@H]34)[C@@H]2CC(=O)O1 [SPINOSYN A] | 3 ppm | 0.4 ppm |
| C[C@@H]1C(=O)C[C@@H](O)CC/C=C/C=C\CC[C@H](C)OC(=O)[C@@H]2O[B-]34O[C@@H](C(=O)O[C@@H](C)CC/C=C\C=C\CC[C@H](O)CC(=O)[C@@H](C)[C@@H]5CC[C@](C)(O)[C@]2(O5)O3)[C@@]2(O[C@H]1CC[C@]2(C)O)O4 [TARTROLON C] | 125 ppm | 125 ppm |
